# Experimental data from PubChem BioAssay AID1117286 (Broad Institute, 2014).
# Results filed as inconclusive are left out. Activity calls are given as the source filed them.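 The calls were made as follows: active = every test run gives a falling-signal AC50 no higher than twice the top tested dose; inconclusive = runs disagree, or a flat partial drop, or a poor fit; inactive = all runs inactive, including rising signal.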
# Target: Endoplasmic reticulum aminopeptidase 2 (Homo sapiens) (UniProt Q6P179)
# Sequence (Q6P179 whole entry, looked up): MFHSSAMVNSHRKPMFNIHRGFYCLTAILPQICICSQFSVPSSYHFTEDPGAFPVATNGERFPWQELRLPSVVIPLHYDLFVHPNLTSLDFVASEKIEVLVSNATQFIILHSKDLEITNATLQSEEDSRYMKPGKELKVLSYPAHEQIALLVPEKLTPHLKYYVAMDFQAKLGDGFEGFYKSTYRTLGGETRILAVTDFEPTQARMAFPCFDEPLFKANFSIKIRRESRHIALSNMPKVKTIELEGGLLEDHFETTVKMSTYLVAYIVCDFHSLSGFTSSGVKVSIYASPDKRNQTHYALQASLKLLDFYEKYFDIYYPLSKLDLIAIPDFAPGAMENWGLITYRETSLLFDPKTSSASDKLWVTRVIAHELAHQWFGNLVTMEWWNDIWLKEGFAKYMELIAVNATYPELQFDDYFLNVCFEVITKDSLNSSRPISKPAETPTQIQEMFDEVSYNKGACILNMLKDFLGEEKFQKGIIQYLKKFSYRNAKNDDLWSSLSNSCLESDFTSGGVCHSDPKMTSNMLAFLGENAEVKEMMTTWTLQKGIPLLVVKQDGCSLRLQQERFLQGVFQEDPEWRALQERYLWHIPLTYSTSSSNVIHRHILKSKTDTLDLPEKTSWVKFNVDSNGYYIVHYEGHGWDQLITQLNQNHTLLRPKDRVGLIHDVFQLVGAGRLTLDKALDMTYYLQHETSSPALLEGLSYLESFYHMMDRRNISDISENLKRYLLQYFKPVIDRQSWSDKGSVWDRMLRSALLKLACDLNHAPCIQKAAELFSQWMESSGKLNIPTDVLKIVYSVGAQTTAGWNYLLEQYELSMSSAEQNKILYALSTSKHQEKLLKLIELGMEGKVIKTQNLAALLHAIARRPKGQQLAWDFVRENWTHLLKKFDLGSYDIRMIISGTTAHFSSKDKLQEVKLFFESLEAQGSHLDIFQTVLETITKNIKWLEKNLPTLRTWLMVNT
# Experiment: inhibition of recombinant ERAP2 Arg-AMC cleavage – biochemical, plate reader, dry powder samples, selectivity assay for selective ERAP1 modulator project, dose response (AID 1117286)
# Conditions: Recombinant ERAP2, Arg-AMC cleavage fluorescence, 1 h
Compound,"activity change, negative = inhibition (at 50 µM (top of the series))",further results
O=S(=O)(Nc1cc(C(F)(F)F)ccc1N1CCCCC1)c1ccc(Cl)cc1,inactive,–
CC(=O)N1CCN(C(=O)C2(NC(=O)Nc3ccccc3)CCCC2)CC1,inactive,–
Cc1ccccc1S(=O)(=O)Nc1cc(C(F)(F)F)ccc1N1CCCCC1,inactive,–
CC(=O)N1CCN(C(=O)C2(NC(=O)Nc3ccc(C(F)(F)F)cc3)CCCC2)CC1,inactive,–
COc1ccc(C(=O)Nc2cccc(C(F)(F)F)c2)cc1S(=O)(=O)O,inactive,–
CC(=O)N1CCN(C(=O)[C@@H]2CCN2C(=O)Nc2ccc(C)cc2)CC1,–,AC50: > 100 µM (inactive)
Cc1ccc(NC(=O)NC2(C(=O)N3CCNCC3)CCCCC2)cc1,inactive,–
CC(=O)N1CCN(C(=O)C2(NC(=O)Nc3ccccc3)CCCCC2)CC1,inactive,–
CC(=O)N1CCN(C(=O)C2(NC(=O)NC(C)(C)C)CCCCC2)CC1,inactive,–
O=S(=O)(Nc1cc(C(F)(F)F)ccc1N1CCCCC1)c1cc(Cl)cc(Cl)c1,inactive,–
COc1ccc(NC(=O)NC2(C(=O)N3CCN(C(C)=O)CC3)CCCCC2)cc1,inactive,–
COc1ccc(C(=O)O)cc1S(=O)(=O)Nc1cc(C(F)(F)F)ccc1N(C)C,inactive,–
CC(=O)N1CCN(C(=O)C2(NC(=O)Nc3ccc(C(C)C)cc3)CCCCC2)CC1,inactive,–
COc1ccc(C(=O)Nc2ccccc2N2CCCCC2)cc1S(=O)(=O)O,inactive,–
COc1ccc(C(=O)O)cc1S(=O)(=O)Nc1cc(C(F)(F)F)ccc1N1CCOCC1,inactive,–
CC(=O)N1CCN(C(=O)C2(NC(=O)NCCc3ccccc3)CCCCC2)CC1,inactive,–
O=[N+]([O-])c1ccc(S(=O)(=O)Nc2cc(C(F)(F)F)ccc2N2CCCCC2)c([N+](=O)[O-])c1,inactive,–
COc1ccc(C(=O)O)cc1S(=O)(=O)Nc1cc(C(F)(F)F)ccc1N1CCCCC1,inactive,–
COc1ccc(C(=O)Nc2cc(C(F)(F)F)ccc2N2CCCCC2)cc1S(=O)(=O)O,–,AC50: > 100 µM (inactive)

Compound,"activity change, negative = inhibition (at 50 µM (top of the series))",further results
CC(=O)N1CCN(C(=O)CNC(=O)Nc2ccc(C)cc2)CC1,inactive,–
Cn1cnc(S(=O)(=O)Nc2cc(C(F)(F)F)ccc2N2CCCCC2)c1,inactive,–
Cc1ccc(NC(=O)NC2(C(=O)N3CCN(c4ccccc4)CC3)CCCCC2)cc1,inactive,–
CC(=O)N1CCN(C(=O)C2(NC(=O)Nc3ccc(Cl)cc3)CCCCC2)CC1,inactive,–
CC(=O)N1CCN(C(=O)C2(NC(=O)Nc3cccc(C(F)(F)F)c3)CCCCC2)CC1,inactive,–
NC(=NCCc1c[nH]c2ccccc12)NS(=O)(=O)c1cc(F)ccc1F,inactive,–
CC(=O)N1CCN(C(=O)C2(NC(=O)Nc3ccccc3F)CCCCC2)CC1,inactive,–
COc1ccc(C2=NN(c3ccc(C(=O)O)cc3)C(c3ccc(OC)c(OC)c3)C2)cc1 (configuration not stated),–,"activity change, negative = inhibition (at 26 µM (top of the series)): inactive"
COc1cccc(NC(=O)NC2(C(=O)N3CCN(C(C)=O)CC3)CCCCC2)c1,inactive,–
O=S(=O)(Nc1cc(C(F)(F)F)ccc1N1CCCCC1)c1ccccc1,inactive,–
O=[N+]([O-])c1cccc(S(=O)(=O)Nc2cc(C(F)(F)F)ccc2N2CCCCC2)c1,inactive,–
CC(=O)N1CCN(C(=O)C2(NC(=O)Nc3cccc(F)c3)CCCCC2)CC1,inactive,–
O=C(Nc1cc(C(F)(F)F)ccc1N1CCCCC1)c1ccc(S(=O)(=O)O)cc1,inactive,–
Cc1ccc(NC(=O)NC2(C(=O)N3CCOCC3)CCCCC2)cc1,inactive,–
CC(=O)N1CCN(C(=O)C2(NC(=O)Nc3ccc(C)cc3)CCCCC2)CC1,inactive,–
CC(=O)N1CCN(C(=O)C(C)(C)NC(=O)Nc2ccc(C)cc2)CC1,inactive,–
CC(=O)N1CCN(C(=O)C2(NC(=O)Nc3ccc(F)cc3)CCCCC2)CC1,inactive,–
CC(=O)N1CCN(C(=O)C2(NC(=O)Nc3ccccc3C(F)(F)F)CCCCC2)CC1,inactive,–

# Further lines, with some results ahead:
"activity change, negative = inhibition (at 50 µM (top of the series))",Compound,further results
inactive,N#Cc1ccc(S(=O)(=O)Nc2cc(C(F)(F)F)ccc2N2CCCCC2)cc1,–
inactive,COc1ccc(C(=O)Nc2cc(C)ccc2N2CCCCC2)cc1S(=O)(=O)O,–
inactive,COc1ccc(C(=O)O)cc1S(=O)(=O)Nc1cc(C)ccc1N1CCCCC1,–
inactive,COc1ccc(C(=O)O)cc1S(=O)(=O)Nc1cc(F)ccc1N1CCCCC1,–
inactive,O=S(=O)(Nc1cc(C(F)(F)F)ccc1N1CCCCC1)c1ccc(-c2ccccc2)cc1,–
inactive,COc1ccc(S(=O)(=O)Nc2cc(C(F)(F)F)ccc2N2CCCCC2)cc1,–
inactive,O=S(=O)(Nc1cc(C(F)(F)F)ccc1N1CCCCC1)c1ccc(C(F)(F)F)cc1,–
inactive,CC(=O)N1CCN(C(=O)C2CCCN2C(=O)Nc2ccc(C)cc2)CC1 (configuration not stated),–
inactive,O=S(=O)(Nc1cc(C(F)(F)F)ccc1N1CCCCC1)c1ccc(F)cc1,–
inactive,CC(=O)N1CCN(C(=O)C2(NC(=O)Nc3ccc(C(C)C)cc3)CCCC2)CC1,–
inactive,COc1ccc(C(=O)O)cc1S(=O)(=O)Nc1ccccc1N1CCCCC1,–
inactive,O=S(=O)(Nc1cc(C(F)(F)F)ccc1N1CCCCC1)c1ccc(Br)cc1,–
inactive,COc1ccc(C(=O)Nc2cc(C(F)(F)F)ccc2N2CCCC2)cc1S(=O)(=O)O,–
inactive,CC(=O)N1CCN(C(=O)C2(NC(=O)Nc3ccc(F)cc3)CCCC2)CC1,–
inactive,COc1ccc(C(=O)Nc2cc(F)ccc2N2CCCCC2)cc1S(=O)(=O)O,–
